Laboratory results taken from patent US20240335395A1, “COMPOSITIONS AND METHODS FOR PREVENTING AND/OR TREATING DISEASE ASSOCIATED WITH IL-23 EXPRESSION” (ALLSPIM, priority 2021, published 2024).

Tests used:
IL-23 [1] = experiment: IL-23 production (ELISA) in LPS-stimulated THP-1 cells, 2,4-D versus other chalcones, Example 2; format: cell-based, human; settings: LPS-stimulated THP-1, 24 h
Excerpt: Molecules tested. Natural 2,4-D, isolated and purified from Chloranthus spicatus (purity HPLC≥98%, Cat. No.: 129742-43-2), was purchased from BOC Science (Shirley, NY). Synthetic 2,4-D (purity HPLC≥98%) was obtained from YIWEI Biotech (Shanghai, China). 2′-hydroxychalcone (2′-HC, purity HPLC≥98%, Cat. No.: 42224-53-3), 4-hydroxychlcone (4-HC, purity HPLC≥98%, Cat. No.: 20426-12-4), 2′,2-dihydroxychalcone (2′,2-DHC, purity HPLC≥98%, Cat. No.: IDF00045_ALDRICH), 2′,3-dihydroxychalcone (2′,3-DHC, purity HPLC≥98%, Cat No.: IDF00047_ALDRICH), 2′,4-dihydroxychalcone (2′,4-DHC, purity HPLC≥98%, Cat. No.: PH011685_ALDRICH), 2′,5′-dihydroxychalcone (2′,5′-DHC, purity HPLC≥98%, No.: IDF00046-1G), and 2′,4′,4-trihydroxychalcone (2′,4′4-THC, purity HPLC≥98%, No.: 38986_SIAL) were purchased from Sigma. 2′,4′-dihydroxychalcone (2′,4′-DHC, purity HPLC≥98%, Cat. No. AB151736) was purchased from abcr GmbH (Karlsruhe, Germany). Isobavachalcone (IBC), 4′-hydroxy-2′6′-dimethoxychalcone (HMC), 2-trifluoromethyl-2′-methoxychalcone (TFM) and Hydroxysafflor yellow A (HYA) were also tested.
Cell culture. THP-1 cells were cultured in RPMI 1640 culture medium (Gibco) supplemented with 10% fetal bovine serum (FBS; Gibco, UK.), 0.05 mM 2-mercaptoethanol, and 1% penicillin/streptomycin. Cells were used in exponential growth phase, with culture medium being replaced with fresh medium 1 day prior to the experiment. The following day, THP-1 cells were plated into 24-well culture plates with a cell density about 800,000 cells/mL and 2 mL per well. 10 ng/mL LPS was used to stimulate the THP-1 cells. RPMI 1640 medium containing 10% FBS and 1% P/S was used as a normal control (NC). 10 mM stock solutions of compounds in DMSO were diluted to 20 μM with complete culture medium just before use. Experiments were performed in quadruplicate.
Enzyme linked immune-sorbent assay (ELISA). At 24 hours, after centrifugation at 300 g for 10 min., 0.5 mL of supernatant was collected and stored at −80° C. until use. IL-23 levels were determined in culture supernatants as described in Example 1.

IL-23 [2] = experiment: IL-23 production (ELISA of supernatant) in LPS-stimulated THP-1 cell culture, Examples 1 and 8; format: cell-based, human
Procedure: The THP-1 cell line (TIB-202) was obtained from the American Type Culture Collection (ATCC, USA), grown in RPMI 1640 culture medium (Gibco) supplemented with 10% fetal bovine serum (Gibco, UK), 50 U/mL penicillin-streptomycin (Gibco), and 0.05 mM 2-Mercaptoethanol (Gibco). Cultured cells were plated into culture plates in appropriate volumes with a cell density of 500,000 cells/mL.
PCR was performed in duplicate using SYBR Green qPCR master mix (Takara Biomedical Technology Co., Ltd, Dalian, China) on an ABI 7500 Real-Time PCR System (Thermo, USA). The cycling program was as follows: denaturation at 95° C. for 15 s, 40 cycles of 95° C. for 15 s and extension at 60° C. for 60 s, followed by melt curve generation. The ΔΔCT method was used to quantify relative mRNA levels as described in User Bulletin #2 for the ABI PRISM 7700 Sequence Detection System (Applied Biosystems, 2001). The primer sequences used in this study are 5′-[…]-3′ (forward), 5′-[…]-3′ (reverse) for human IL-23p19 (SEQ ID NOs: 4 and 5, respectively); and 5′-ACAGTCCATGCCATCACTG-3′ (forward) and 5′-AGTAGAGGCAGGGATGATG-3′ for human GAPDH as a reference (SEQ ID NOs: 6 and 7, respectively). 24 hours after culture and treatments, supernatants were collected and IL-23 levels measured using the IL-23 Human Uncoated ELISA Kit (ThermoFisher Scientific Inc., USA) according to the manufacturer's instructions. A Varioskan LUX microplate reader (Thermo Fisher, USA) was used for the assay and 4-parameter logistic regression was used for data analysis. Two duplicates per sample were performed and results were averaged.
The anti-IL-23 activity of 2,4-D was compared with the commercially prescribed nonsteroidal anti-inflammatory drugs (NSAIDs:[…], Ibuprofen, and Aspirin) in the LPS-stimulated THP-1 cell culture system described above (Example 1)).

[3] = tested on: MSU-induced knee joint edema; experiment: MSU-induced knee joint edema in mice; format: in vivo, mouse; settings: 20 h; high dose i.p.: 2,4-D 100 mg/kg, CLC 1 mg/kg, DEX 0.5 mg/kg
Procedure: (§1) 2,4-D, isolated and purified from Chloranthus spicatus (purity≥98%), was purchased from BOC Science (Shirley, NY). Colchicine (CLC) (purity≥96%) and dexamethasone (DEX) (purity≥98%) were purchased from Sigma. Mice (six per group) were treated with 2,4-D (100 mg/kg or 20 mg/kg, i.p.), CLC (1 mg/kg or 0.2 mg/kg, i.p.), DEX (0.5 mg/kg or 0.1 mg/kg, i.p.), or vehicle (20% polyoxyethylenesorbitan monooleate (Tween 80) plus PBS) 30 min before intra-articular stimulus with MSU (100 μg/10 μL, i.a.). Six mice with intra-articular injection with PBS alone served as a negative control.
Preparation of monosodium urate crystal (MSU). MSU crystals were prepared as described previously (Ruiz-Miyazawa et al., 2017). Briefly, 800 mg of monosodium urate was dissolved in 155 ml of boiling milli-Q water containing 2N NaOH. After pH adjustment to 8.9, the solution was cooled gradually by stirring at room temperature and crystallized overnight at 4° C. Crystals were collected, and centrifuged at 3,000×g for 2 min at 4° C. The crystals were evaporated and sterilized by heating at 180° C. for 2 h and stored in a sterile environment until use. The load of endotoxin present in the MSU crystals was determined using a ToxinSensor^TM Single Test Kit (GenScript).
(§2) Induction of MSU-Induced Knee Joint Inflammation. Male ICR (CD-1) mice (35-45 g, 10-12 weeks) were purchased from VitalRiver Inc (Beijing, China) and were kept in an animal care facility under controlled temperature of 21±1° C., humidity, and on a light/dark cycle, with ad libitum access to water and standard laboratory chow diet. Animal care and handling procedures were approved by the Animal Ethics Committee of GZUCM (Guangzhou University of Chinese Medicine). All efforts were made to minimize animal suffering and to reduce the number of animals used. Joint inflammation was induced by the intra-articular (i.a.) administration of MSU (200 μg/20 μl) into the right and left knee joints of mice under inhaled 3% isoflurane anesthesia. Control animals received an injection (i.a.) of sterile PBS (20 μL).
Evaluation of Knee Joint Edema. Knee joint edema was determined with a caliper (Mitutoyo) before (zero time), and after the intra-articular injection with MSU at the times indicated. Knee joint edema was determined for each mouse by the difference between the time points indicated on figures and the zero time (Ruiz-Miyazawa et al, 2017). The edema value is represented as Amm/joint.
Statistical Analysis. Data were analyzed using GraphPad Prism statistical software (GraphPad Software, Inc., United States-500.288, version 5.0). Results are presented as means±SEM or SD of measurements made on 6 mice per group, with statistical significance determined by two-way ANOVA, comparing each group to the control (“Model”) group. For in vitro experiments, microassays were performed in quadruplicate. p<0.05 was considered significant (*p<0.05, **p<0.01, ***p<0.001).

[4] = tested on: MSU-induced leukocyte recruitment; experiment: MSU-induced leukocyte recruitment to the synovial cavity of knee joint; format: in vivo, mouse; settings: 20 h; 2,4-D 100 mg/kg, CLC 1 mg/kg, DEX 0.5 mg/kg
Procedure: as §1, §2
Histopathological Analysis. Knee joint was collected 20 h after MSU injection, fixed with 10% paraformaldehyde in PBS, and then decalcified for 10 days with EDTA and embedded in paraffin for histological analysis. […] Results are expressed as leukocytes infiltrate (cell/field) counted at the inflammatory foci within synovial cavity as indicative of synovitis. […]
Statistical Analysis. Data were analyzed using GraphPad Prism statistical software (GraphPad Software, Inc., United States-500.288, version 5.0). Results are presented as means±SEM or SD of measurements made on 6 mice per group, with statistical significance determined by two-way ANOVA, comparing each group to the control (“Model”) group. […]

IL-1ß = experiment: MSU-induced IL-1ß in knee joint tissue (multiplex microassay); format: in vivo, mouse; settings: 2,4-D 100 mg/kg, CLC 1 mg/kg, DEX 0.5 mg/kg
Procedure: (§3) Mice (six per group) were treated with 2,4-D (100 mg/kg or 20 mg/kg, i.p.), CLC (1 mg/kg or 0.2 mg/kg, i.p.), DEX (0.5 mg/kg or 0.1 mg/kg, i.p.), or vehicle (20% polyoxyethylenesorbitan monooleate (Tween 80) plus PBS) 30 min before intra-articular stimulus with MSU (100 μg/10 μL, i.a.). Six mice with intra-articular injection with PBS alone served as a negative control.
as §2
(§4) Cytokine Measurement. Mice were anesthetized and sacrificed. Knee joints were collected and frozen in liquid nitrogen. Samples were then homogenized in 500 μl of buffer containing protease inhibitors, centrifuged (3600 rpm, 4° C., 15 min) and supernatants were used to determine Th1/Th2/Th17 cytokine levels using a multiplex microassay (Qantibody® mouse TH17 Array 1 kit, Cat. No.: QAM-TH17-1; RayBiotech, Norcross, GA). Results were expressed as picograms (pg) of cytokine/mg of tissue.
(§5) Statistical Analysis. […] For in vitro experiments, microassays were performed in quadruplicate. p<0.05 was considered significant (*p<0.05, **p<0.01, ***p<0.001).

IL-6 = experiment: MSU-induced IL-6 in knee joint tissue (multiplex microassay); format: in vivo, mouse; settings: 2,4-D 100 mg/kg, CLC 1 mg/kg, DEX 0.5 mg/kg
Procedure: as §3, §2, §4, §5

IL-10 = experiment: MSU-induced IL-10 in knee joint tissue (multiplex microassay); format: in vivo, mouse; settings: CLC 1 mg/kg
Procedure: as §3, §2, §4, §5

TNF-alpha = experiment: MSU-induced TNF-alpha in knee joint tissue (multiplex microassay); format: in vivo, mouse; settings: 2,4-D 100 mg/kg, CLC 1 mg/kg, DEX 0.5 mg/kg
Procedure: as §3, §2, §4, §5

[5] = LPS-stimulated THP-1, Example 8

Compound: Hydroxysafflor yellow A [HYA]
- inhibition of IL-23 production (IL-23 [1]): do not inhibit

Compound: CC(=O)Oc1ccccc1C(=O)O [Aspirin, reference compound]
- change of IL-23 production/release in supernatant (IL-23 [2]; [5]): no significant change

Compound: COc1cc(O)c(OC)c(O)c1C(=O)/C=C/c1ccccc1 [(E) isomer, 2′,4′-dihydroxy-3′,6′-dimethoxychalcone]
- activity of (E) isomer relative to (Z) isomer (IL-23 [2]): 5 fold
- inhibition of IL-23, (E) isomer compared with (Z) isomer (IL-23 [2]; LPS-stimulated THP-1 cell culture): greater

Compound: CC(C)=CCc1c(O)ccc(C(=O)/C=C/c2ccc(O)cc2)c1O [IBC, Isobavachalcone]
- inhibition of IL-23 production (IL-23 [1]): do not inhibit

Compound: COc1cc2c(c(OC)c1OC)-c1ccc(OC)c(=O)cc1[C@@H](NC(C)=O)CC2 [CLC, Colchicine]
- reduction of MSU-induced knee joint edema [3]: 32.6%
- reduction of MSU-induced leukocyte recruitment [4]: 1.6 fold
- decrease of IL-1ß in knee joint tissue (IL-1ß): no effect
- decrease of IL-6 in knee joint tissue (IL-6): no effect
- increase of the expression of IL-10 in knee joint tissue (IL-10): 1.5 fold
- decrease of TNF-alpha in knee joint tissue (TNF-alpha): no effect

Compound: COc1cc(O)cc(OC)c1C(=O)C=Cc1ccccc1 [HMC, 4′-hydroxy-2′6′-dimethoxychalcone]
- inhibition of IL-23 production (IL-23 [1]): do not inhibit

Compound: CC(C)Cc1ccc(C(C)C(=O)O)cc1 (centres unmarked) [Ibuprofen, reference compound]
- reduction of IL-23 release in supernatant (IL-23 [2]; [5]): 20-25%

Compound: COc1cc(O)c(OC)c(O)c1C(=O)/C=C/c1ccccc1 [naturally isolated 2,4-D, 2′,4′-dihydroxy-3′,6′-dimethoxychalcone]
- IC50 (IL-23 [1]; Homo sapiens, read-out: IC50 of inhibition of IL-23): ~2100 nM
